Measurements reported in US10758534B2 (Vertex Pharmaceuticals Incorporated, priority 2014, dated 2020).

Target: T1, F508del (Homo sapiens, UniProt P13569, DEL508-508)
T1 construct: expressed in transfected cells
Experiment: Protocol 1: membrane potential optical assay (FLIPR III, voltage sensing dye), identification of potentiator compounds
Format: cell-based
Conditions: Table 3, compounds of Table 1
Summary of the method: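 Read-out: change in voltage-sensing dye fluorescence (FLIPR III) as a measure of F508del conductance. Temperature-corrected (27° C, 24 hrs) NIH 3T3 cells expressing F508del are pretreated with potentiators, dye-loaded, then stimulated with forskolin under a chloride ion gradient using chloride-free gluconate bath.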

T1 sequence (P13569 with tags, fused parts or gaps DEL508-508): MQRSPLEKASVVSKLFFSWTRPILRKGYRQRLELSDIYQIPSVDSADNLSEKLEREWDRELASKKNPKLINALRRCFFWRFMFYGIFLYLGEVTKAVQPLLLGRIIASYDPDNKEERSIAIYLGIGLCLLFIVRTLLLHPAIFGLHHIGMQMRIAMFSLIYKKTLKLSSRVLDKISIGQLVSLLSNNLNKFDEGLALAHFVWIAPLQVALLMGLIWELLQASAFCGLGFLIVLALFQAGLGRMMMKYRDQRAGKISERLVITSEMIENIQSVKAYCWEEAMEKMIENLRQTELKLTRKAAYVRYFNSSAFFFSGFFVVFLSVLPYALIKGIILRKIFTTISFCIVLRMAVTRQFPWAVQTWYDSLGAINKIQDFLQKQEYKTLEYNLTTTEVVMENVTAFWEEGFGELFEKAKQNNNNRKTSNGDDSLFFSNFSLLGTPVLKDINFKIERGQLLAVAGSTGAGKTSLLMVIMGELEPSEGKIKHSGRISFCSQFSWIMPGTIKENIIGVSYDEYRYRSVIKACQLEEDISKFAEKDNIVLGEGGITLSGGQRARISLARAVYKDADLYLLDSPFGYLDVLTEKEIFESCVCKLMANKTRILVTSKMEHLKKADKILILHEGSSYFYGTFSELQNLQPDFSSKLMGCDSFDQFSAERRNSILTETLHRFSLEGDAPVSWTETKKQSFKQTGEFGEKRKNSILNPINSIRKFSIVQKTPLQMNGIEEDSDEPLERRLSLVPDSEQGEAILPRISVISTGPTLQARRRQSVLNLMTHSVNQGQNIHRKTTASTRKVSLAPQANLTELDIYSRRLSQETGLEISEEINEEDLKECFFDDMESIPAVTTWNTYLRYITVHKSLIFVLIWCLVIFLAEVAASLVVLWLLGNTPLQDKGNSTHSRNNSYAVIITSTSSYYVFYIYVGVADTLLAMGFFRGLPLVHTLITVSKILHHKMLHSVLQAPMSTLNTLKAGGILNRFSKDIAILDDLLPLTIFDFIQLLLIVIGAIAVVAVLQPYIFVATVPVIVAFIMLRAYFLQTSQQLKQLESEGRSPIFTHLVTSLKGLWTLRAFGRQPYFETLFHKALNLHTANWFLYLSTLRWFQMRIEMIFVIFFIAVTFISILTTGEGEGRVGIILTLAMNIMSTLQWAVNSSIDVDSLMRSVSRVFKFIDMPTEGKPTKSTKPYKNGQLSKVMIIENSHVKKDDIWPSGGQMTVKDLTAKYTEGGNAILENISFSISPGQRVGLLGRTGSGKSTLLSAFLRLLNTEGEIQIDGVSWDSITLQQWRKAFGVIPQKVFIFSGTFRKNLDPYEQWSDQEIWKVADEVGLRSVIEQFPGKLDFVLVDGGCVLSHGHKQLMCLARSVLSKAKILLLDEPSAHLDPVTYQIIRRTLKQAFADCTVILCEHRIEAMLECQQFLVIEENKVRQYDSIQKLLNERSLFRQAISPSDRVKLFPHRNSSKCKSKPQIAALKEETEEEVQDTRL

| SMILES | EC30 |
| --- | --- |
| CCOc1cccc2c1CN(Cc1c(C)cc(C)cc1C)C2(C)C(=O)NS(=O)(=O)c1ccccc1N (centres unmarked) [Compound 1457, N-(2-aminophenyl)sulfonyl-4-ethoxy-1-methyl-2-[(2,4,6-trimethylphenyl)methyl]isoindoline-1-carboxamide] | +++ (“+++” means <3 uM) |
| CC(C)COc1cc(F)cc(-c2ccc(C(=O)NS(=O)(=O)c3cccc(N)n3)c(OC3CC(F)(F)C3)n2)c1 [Compound 1458] | +++ (“+++” means <3 uM) |
| CC1CN(c2nc(C(C)(C)C)c(C3=CCC4(CC3)OCCO4)cc2C(=O)NS(=O)(=O)c2cccc(N)n2)C(C)(C)C1 (centres unmarked) [Compound 1459, N-[(6-amino-2-pyridyl)sulfonyl]-6-tert-butyl-5-(1,4-dioxaspiro[4.5]dec-8-en-8-yl)-2-(2,2,4-trimethylpyrrolidin-1-yl)pyridine-3-carboxamide] | +++ (“+++” means <3 uM) |
| Cc1cc(C)c(Oc2nc(C3=CC(C)(C)OCC3)ccc2C(=O)NS(=O)(=O)c2cccc(N)n2)c(C)c1 [Compound 1460, N-[(6-amino-2-pyridyl)sulfonyl]-6-(6,6-dimethyl-2,3-dihydropyran-4-yl)-2-(2,4,6-trimethylphenoxy)pyridine-3-carboxamide] | +++ (“+++” means <3 uM) |
| CC(=O)C1CC=C(c2cc(C(=O)NS(=O)(=O)c3cccc(N)n3)c(N3CC(C)CC3(C)C)nc2C(C)(C)C)CC1 (centres unmarked) [Compound 1461, 5-(4-acetylcyclohexen-1-yl)-N-[(6-amino-2-pyridyl)sulfonyl]-6-tert-butyl-2-(2,2,4-trimethylpyrrolidin-1-yl)pyridine-3-carboxamide] | +++ (“+++” means <3 uM) |
| C[C@@H]1CN(c2nc(C3=CC(C)(C)CCC3=O)ccc2C(=O)NS(=O)(=O)c2cccc(N)n2)C(C)(C)C1 [Compound 1462, N-[(6-amino-2-pyridyl)sulfonyl]-6-(3,3-dimethyl-6-oxo-cyclohexen-1-yl)-2-[(4S)-2,2,4-trimethylpyrrolidin-1-yl]pyridine-3-carboxamide] | +++ (“+++” means <3 uM) |
| CC(C)COc1cc(F)cc(-c2ccc(C(=O)NS(=O)(=O)c3cccc(N)n3)c(O[C@H]3CCOC3)n2)c1 [Compound 1464] | +++ (“+++” means <3 uM) |
| CC(C)COc1cc(F)cc(-c2ccc(C(=O)NS(=O)(=O)c3cccc(N)n3)c(OCCC3CCCCC3)n2)c1 [Compound 1465, N-[(6-amino-2-pyridyl)sulfonyl]-2-(2-cyclohexylethoxy)-6-(3-fluoro-5-isobutoxy-phenyl)pyridine-3-carboxamide] | +++ (“+++” means <3 uM) |
| Cc1cc(C)c(Oc2nc(C3CCOC(C)(C)C3)ccc2C(=O)NS(=O)(=O)c2cccc(N)n2)c(C)c1 (centres unmarked) [Compound 1466, N-[(6-amino-2-pyridyl)sulfonyl]-6-(2,2-dimethyltetrahydropyran-4-yl)-2-(2,4,6-trimethylphenoxy)pyridine-3-carboxamide] | ++ (“++” means between 3 uM and 10 uM) |
| CC(C)COc1cc(F)cc(-c2ccc(C(=O)NS(=O)(=O)N3CCC(N)C3)c(N3CC(C)CC3(C)C)n2)c1 (centres unmarked) [Compound 1467, N-(3-aminopyrrolidin-1-yl)sulfonyl-6-(3-fluoro-5-isobutoxy-phenyl)-2-(2,2,4-trimethylpyrrolidin-1-yl)pyridine-3-carboxamide] | +++ (“+++” means <3 uM) |
| Cc1cccc(C)c1Cn1nc(C(C)(C)C)cc1C(=O)NS(=O)(=O)c1ccco1 [Compound 1468, 5-tert-butyl-2-[(2,6-dimethylphenyl)methyl]-N-(2-furylsulfonyl)pyrazole-3-carboxamide] | +++ (“+++” means <3 uM) |
| CC1CN(c2nc(C(C)(C)C)c(C3=CCCC4(C3)OCCO4)cc2C(=O)NS(=O)(=O)c2cccc(N)n2)C(C)(C)C1 (centres unmarked) [Compound 1469, N-[(6-amino-2-pyridyl)sulfonyl]-6-tert-butyl-5-(1,4-dioxaspiro[4.5]dec-8-en-9-yl)-2-(2,2,4-trimethylpyrrolidin-1-yl)pyridine-3-carboxamide] | ++ (“++” means between 3 uM and 10 uM) |
| CCOc1cccc2c1CN(Cc1c(C)cc(C)cc1C)C2(C)C(=O)NS(=O)(=O)c1cccc(OC)c1 (centres unmarked) [Compound 1470, 4-ethoxy-N-(3-methoxyphenyl)sulfonyl-1-methyl-2-[(2,4,6-trimethylphenyl)methyl]isoindoline-1-carboxamide] | +++ (“+++” means <3 uM) |
| COc1cc(OC)cc(-c2ccc(C(=O)NS(=O)(=O)c3cccc(N)n3)c(N3C[C@@H](C)CC3(C)C)n2)c1 [Compound 1471, N-[(6-amino-2-pyridyl)sulfonyl]-6-(3,5-dimethoxyphenyl)-2-[(4S)-2,2,4-trimethylpyrrolidin-1-yl]pyridine-3-carboxamide] | +++ (“+++” means <3 uM) |
| Cc1cc(N)nc(S(=O)(=O)NC(=O)c2ccc(-c3cc(F)cc(OCC(C)C)c3)nc2N2C[C@@H](C)CC2(C)C)c1 [Compound 1472, N-[(6-amino-4-methyl-2-pyridyl)sulfonyl]-6-(3-fluoro-5-isobutoxy-phenyl)-2-[(4S)-2,2,4-trimethylpyrrolidin-1-yl]pyridine-3-carboxamide] | +++ (“+++” means <3 uM) |
| CCOc1cc(C)n(-c2ccc(C(=O)NS(=O)(=O)c3cccc(N)n3)c(N3C[C@@H](C)CC3(C)C)n2)n1 [Compound 1473, N-[(6-amino-2-pyridyl)sulfonyl]-6-(3-ethoxy-5-methyl-pyrazol-1-yl)-2-[(4S)-2,2,4-trimethylpyrrolidin-1-yl]pyridine-3-carboxamide] | +++ (“+++” means <3 uM) |
| CCOc1cccc2c1CN(Cc1c(C)cc(C)cc1C)C2(C)C(=O)NS(=O)(=O)c1ccccn1 (centres unmarked) [Compound 1474, 4-ethoxy-1-methyl-N-(2-pyridylsulfonyl)-2-[(2,4,6-trimethylphenyl)methyl]isoindoline-1-carboxamide] | +++ (“+++” means <3 uM) |
| CCC1CCC(c2ccc(C(=O)NS(=O)(=O)c3cccc(N)n3)c(Oc3c(C)cc(C)cc3C)n2)CC1 (centres unmarked) [Compound 1475, N-[(6-amino-2-pyridyl)sulfonyl]-6-(4-ethylcyclohexyl)-2-(2,4,6-trimethylphenoxy)pyridine-3-carboxamide] | +++ (“+++” means <3 uM) |
| CCOc1cccc2c1CN(Cc1c(C)cc(C)cc1C)[C@@]2(C)C(=O)NS(=O)(=O)c1ccc[nH]c1=O [Compound 1476, (1R)-4-ethoxy-1-methyl-N-[(2-oxo-1H-pyridin-3-yl)sulfonyl]-2-[(2,4,6-trimethylphenyl)methyl]isoindoline-1-carboxamide] | +++ (“+++” means <3 uM) |
| CC(C)COc1cc(F)cc(-c2ccc(C(=O)NS(=O)(=O)c3cccc(N)n3)c(OC3CCCCC3)n2)c1 [Compound 1477, N-[(6-amino-2-pyridyl)sulfonyl]-2-(cyclohexoxy)-6-(3-fluoro-5-isobutoxy-phenyl)pyridine-3-carboxamide] | +++ (“+++” means <3 uM) |
| Cc1cccc(C)c1Cn1nc(-c2ccc(OC(C)C)cc2)cc1C(=O)NS(=O)(=O)c1ccccc1 [Compound 1478, N-(benzenesulfonyl)-2-[(2,6-dimethylphenyl)methyl]-5-(4-isopropoxyphenyl)pyrazole-3-carboxamide] | +++ (“+++” means <3 uM) |
| CC(C)COc1cc(F)cc(-c2ccc(C(=O)NS(=O)(=O)c3cccc(N)n3)c(OC3(Cc4ccccc4)CCC3)n2)c1 [Compound 1479, N-[(6-amino-2-pyridyl)sulfonyl]-2-(1-benzylcyclobutoxy)-6-(3-fluoro-5-isobutoxy-phenyl)pyridine-3-carboxamide] | +++ (“+++” means <3 uM) |
| CCOc1cccc2c1CN(Cc1c(C)cc(C)cc1C)C2(C)C(=O)NS(=O)(=O)c1ccc(N)cc1 (centres unmarked) [Compound 1480, N-(4-aminophenyl)sulfonyl-4-ethoxy-1-methyl-2-[(2,4,6-trimethylphenyl)methyl]isoindoline-1-carboxamide] | +++ (“+++” means <3 uM) |
| Cc1cc(C)c(Oc2nc(C(C)(C)C)ccc2C(=O)N=S(N)(=O)c2cccc(N)n2)c(C)c1 (centres unmarked) [Compound 1481, N-[amino-(6-amino-2-pyridyl)-oxo-$1^6-sulfanylidene]-6-tert-butyl-2-(2,4,6-trimethylphenoxy)pyridine-3-carboxamide] | +++ (“+++” means <3 uM) |
| COc1cc(C)cc(S(=O)(=O)NC(=O)c2ccc(-c3cc(F)cc(OCC(C)C)c3)nc2N2C[C@@H](C)CC2(C)C)n1 [Compound 1482, 6-(3-fluoro-5-isobutoxy-phenyl)-N-[(6-methoxy-4-methyl-2-pyridyl)sulfonyl]-2-[(4S)-2,2,4-trimethylpyrrolidin-1-yl]pyridine-3-carboxamide] | +++ (“+++” means <3 uM) |
| COc1cccc(S(=O)(=O)NC(=O)c2ccc(-c3cc(F)cc(OCC(C)C)c3)nc2N2C[C@@H](C)CC2(C)C)n1 [Compound 1483, 6-(3-fluoro-5-isobutoxy-phenyl)-N-[(6-methoxy-2-pyridyl)sulfonyl]-2-[(4S)-2,2,4-trimethylpyrrolidin-1-yl]pyridine-3-carboxamide] | +++ (“+++” means <3 uM) |
| C[C@@H]1CN(c2nc(C(C)(C)C)c(/C=C/C3CCCCC3)cc2C(=O)NS(=O)(=O)c2cccc(N)n2)C(C)(C)C1 [Compound 1484, N-[(6-amino-2-pyridyl)sulfonyl]-6-tert-butyl-5-[(E)-2-cyclohexylvinyl]-2-[(4S)-2,2,4-trimethylpyrrolidin-1-yl]pyridine-3-carboxamide] | +++ (“+++” means <3 uM) |
| CC1CN(c2nc(C(C)(C)C)c(C3=CCCCO3)cc2C(=O)NS(=O)(=O)c2cccc(N)n2)C(C)(C)C1 (centres unmarked) [Compound 1485, N-[(6-amino-2-pyridyl)sulfonyl]-6-tert-butyl-5-(3,4-dihydro-2H-pyran-6-yl)-2-(2,2,4-trimethylpyrrolidin-1-yl)pyridine-3-carboxamide] | +++ (“+++” means <3 uM) |
| Cc1cc(C)c(Oc2nc(C(C)C(C)C)ccc2C(=O)NS(=O)(=O)c2cccc(N)n2)c(C)c1 (centres unmarked) [Compound 1486, N-[(6-amino-2-pyridyl)sulfonyl]-6-(1,2-dimethylpropyl)-2-(2,4,6-trimethylphenoxy)pyridine-3-carboxamide] | +++ (“+++” means <3 uM) |
